Numbers after ± are expanded uncertainties.
Legend:
[1] = Molar enthalpy of transition or fusion; conditions: Adiabatic calorimetry
[2] = for molar entropy: 101.33 kPa, Vacuum adiabatic calorimetry

CCCCCCCCCCCCCCCCCC(=O)OCC(COC(=O)CCCCCCCCCCCCCCCCC)OC(=O)CCCCCCCCCCCCCCCCC [glycerol trioctadecanoate]
[1]
Conditions | Molar enthalpy of transition or fusion [kJ/mol]
Crystal | 197.6 ± 1.8
Metastable crystal | 129 ± 1.8

[2]
Conditions | Normal melting temperature [°C] | Triple point temperature [K] | molar entropy [J/K/mol]
10 K, Crystal | – | – | 5.349 ± 0.89
20 K, Crystal | – | – | 32.09 ± 0.89
30 K, Crystal | – | – | 74.88 ± 0.89
40 K, Crystal | – | – | 130.16 ± 1.8
50 K, Crystal | – | – | 188.99 ± 2.7
60 K, Crystal | – | – | 251.4 ± 3.6
70 K, Crystal | – | – | 315.58 ± 4.5
80 K, Crystal | – | – | 380.66 ± 6.2
90 K, Crystal | – | – | 443.96 ± 7.1
100 K, Crystal | – | – | 504.58 ± 8
110 K, Crystal | – | – | 562.52 ± 8.9
120 K, Crystal | – | – | 618.69 ± 8.9
130 K, Crystal | – | – | 673.07 ± 9.8
140 K, Crystal | – | – | 726.56 ± 11
150 K, Crystal | – | – | 778.26 ± 12
160 K, Crystal | – | – | 829.97 ± 12
170 K, Crystal | – | – | 879.89 ± 13
180 K, Crystal | – | – | 929.81 ± 14
190 K, Crystal | – | – | 978.84 ± 15
200 K, Crystal | – | – | 1028.8 ± 15
210 K, Crystal | – | – | 1077.8 ± 16
220 K, Crystal | – | – | 1125.9 ± 17
230 K, Crystal | – | – | 1173.2 ± 18
240 K, Crystal | – | – | 1219.5 ± 19
250 K, Crystal | – | – | 1266.8 ± 19
260 K, Crystal | – | – | 1314 ± 20
270 K, Crystal | – | – | 1361.3 ± 21
280 K, Crystal | – | – | 1408.5 ± 18
290 K, Crystal | – | – | 1456.7 ± 22
298.15 K, Crystal | – | – | 1495.9 ± 22
300 K, Crystal | – | – | 1504.8 ± 22
310 K, Crystal | – | – | 1553.8 ± 23
320 K, Crystal | – | – | 1603.8 ± 24
330 K, Crystal | – | – | 1655.5 ± 25
Crystal, Adiabatic calorimetry | – | 345.94 ± 0.04 | –
Metastable crystal, Adiabatic calorimetry | 54.2 ± 0.1 | – | –

— the NIST ThermoML archive (doi:10.1021/je050092d)
